From patent US12501899B2, “Mite infestation treatment” (priority 2019, dated 2025)
Counter-ions that a name gives are not always drawn. Like-named read-outs stand apart in the source and are kept apart here.

Test system: Ixodes ricinus
Test: Oral acaricidal test on ticks in membrane feeding wells with treated blood
Type: in vivo
Settings: for mortality at 1 ppm / mortality at 10 ppm / mortality at 100 ppm: Ixodes ricinus, po
Description: A laboratory study was conducted to determine the oral acaricidal properties of three compounds according to the invention (SN0305, SN0306 and SN0307) against Ixodes ricinus. Each compound was tested at 1, 10 and 100 ppm, and compared to a negative control corresponding to solvent alone (0.1% DMSO). Amitraz at 100 ppm was used as a positive control.
The Ixodes ricinus ticks (nymphs and adults) were placed for 24 hours on a membrane in feeding wells containing blood mixed with the tested compounds. Tick mortality (number of dead, moribund, or unaffected ticks in each well), attachment to the membrane (number of ticks attached/detached in each well), and the behavior (presence or absence of twitches) were examined 1, 3, 6, 12, 24, 48, 72, and 96 hours after the onset of tick exposure to the compounds.
Ticks (Ixodes ricinus) were collected. Collected adult females were kept separate from the nymphs and both were placed in sterile tubes in a humidity chamber to provide ˜80% humidity and 17° C. Only healthy ticks (females/nymphs) were chosen for the experiment.
Batches of 12 adults or nymphs were inserted into the feeding wells. After about 24 hours, their attachment was examined with a brush.
The efficiency of three compounds (SN0305, SN0306 and SN0307), each tested at three concentrations (1, 10, 100 ppm), was compared to the solvent control (0.1% DMSO, Sigma-Aldrich D-5879; Lot 101K0028) and to the positive control (Amitraze at 100 ppm).
Silicone-coated membranes with a thickness comprised between 110 and 140 μm were used for the construction of the feeding units.
Feeding units (sterilized acrylic glass tubes) were placed in feeding wells made of sterilized six-well plates.
3.1 ml of sterile 10^−3 M ATP-enriched blood was applied to each feeding well. Feeding wells were then inserted into a heated water bath (FIG. 12) and maintained at 37° C.±2° C.
Stock solutions of 100,000 ppm were prepared and tenth dilutions were carried out in 0.1% DMSO to reach the desired concentrations. After tick attachment (24 hours after placing the ticks in the feeding wells), 3.1 μl of the solutions were added to each feeding well containing 3.1 ml of blood. Blood was changed after 12 hours with fresh supplementation of the compounds to be tested. The ticks were exposed to the product for a total of 24 hours, after which the blood was again changed to fresh, untreated blood.
Tick mortality (number of dead, moribund or unaffected ticks in each well), attachment (number of attached/detached ticks in each well) and behavior (presence, absence and intensity of convulsions) were examined 1, 3, 6, 12, 24, 48, 72, and 96 hours after the start of tick exposure to the compound.

[1] = adult ticks, 1 h, read-out: average percentage of adult tick mortality (moribund or dead adult ticks)
[2] = adult ticks, 3 h, read-out: average percentage of adult tick mortality (moribund or dead adult ticks)
[3] = adult ticks, 6 h, read-out: average percentage of adult tick mortality (moribund or dead adult ticks)
[4] = adult ticks, 12 h, read-out: average percentage of adult tick mortality (moribund or dead adult ticks)
[5] = adult ticks, 24 h, read-out: average percentage of adult tick mortality (moribund or dead adult ticks)
[6] = adult ticks, 48 h, read-out: average percentage of adult tick mortality (moribund or dead adult ticks)
[7] = adult ticks, 72 h, read-out: average percentage of adult tick mortality (moribund or dead adult ticks)
[8] = adult ticks, 96 h, read-out: average percentage of adult tick mortality (moribund or dead adult ticks)
[9] = nymphs, 1 h, read-out: average percentage of mortality of tick nymphs (moribund or dead nymphs)
[10] = nymphs, 3 h, read-out: average percentage of mortality of tick nymphs (moribund or dead nymphs)
[11] = nymphs, 6 h, read-out: average percentage of mortality of tick nymphs (moribund or dead nymphs)
[12] = nymphs, 12 h, read-out: average percentage of mortality of tick nymphs (moribund or dead nymphs)
[13] = nymphs, 24 h, read-out: average percentage of mortality of tick nymphs (moribund or dead nymphs)
[14] = nymphs, 48 h, read-out: average percentage of mortality of tick nymphs (moribund or dead nymphs)
[15] = nymphs, 72 h, read-out: average percentage of mortality of tick nymphs (moribund or dead nymphs)
[16] = nymphs, 96 h, read-out: average percentage of mortality of tick nymphs (moribund or dead nymphs)

SMILES: Cc1cccc(Cc2cnc[nH]2)c1C [Detomidine hydrochloride, 4-[(2,3-dimethylphenyl)-methyl]-3H-imidazole]
- effect in terms of tick detachment (in words) (1, 10, 100 ppm, nymphs and adults): very limited effect
- detached adults in a replica (1 ppm, adult ticks): 2
- mortality at 1 ppm (adult ticks, 1 ppm, 1 h, read-out: average percentage of adult tick mortality (moribund or dead adult ticks)): 0%
- mortality at 1 ppm (adult ticks, 1 ppm, 3 h, read-out: average percentage of adult tick mortality (moribund or dead adult ticks)): 0%
- mortality at 1 ppm (adult ticks, 1 ppm, 6 h, read-out: average percentage of adult tick mortality (moribund or dead adult ticks)): 2.8%
- mortality at 1 ppm (adult ticks, 1 ppm, 12 h, read-out: average percentage of adult tick mortality (moribund or dead adult ticks)): 2.8%
- mortality at 1 ppm (adult ticks, 1 ppm, 24 h, read-out: average percentage of adult tick mortality (moribund or dead adult ticks)): 62.9%
- mortality at 1 ppm (adult ticks, 1 ppm, 48 h, read-out: average percentage of adult tick mortality (moribund or dead adult ticks)): 88.2%
- mortality at 1 ppm (adult ticks, 1 ppm, 72 h, read-out: average percentage of adult tick mortality (moribund or dead adult ticks)): 100%
- mortality at 1 ppm (adult ticks, 1 ppm, 96 h, read-out: average percentage of adult tick mortality (moribund or dead adult ticks)): 100%
- mortality at 10 ppm [1]: 0%
- mortality at 10 ppm [2]: 0%
- mortality at 10 ppm [3]: 8.3%
- mortality at 10 ppm [4]: 8.3%
- mortality at 10 ppm [5]: 52.1%
- mortality at 10 ppm [6]: 96.4%
- mortality at 10 ppm [7]: 100%
- mortality at 10 ppm [8]: 100%
- mortality at 100 ppm [1]: 0%
- mortality at 100 ppm [2]: 0%
- mortality at 100 ppm [3]: 8.8%
- mortality at 100 ppm [4]: 15.4%
- mortality at 100 ppm [5]: 24%
- mortality at 100 ppm [6]: 57.4%
- mortality at 100 ppm [7]: 100%
- mortality at 100 ppm [8]: 100%
- mortality at 1 ppm (nymphs, 1 ppm, 1 h, read-out: average percentage of mortality of tick nymphs (moribund or dead nymphs)): 0%
- mortality at 1 ppm (nymphs, 1 ppm, 3 h, read-out: average percentage of mortality of tick nymphs (moribund or dead nymphs)): 0%
- mortality at 1 ppm (nymphs, 1 ppm, 6 h, read-out: average percentage of mortality of tick nymphs (moribund or dead nymphs)): 14.1%
- mortality at 1 ppm (nymphs, 1 ppm, 12 h, read-out: average percentage of mortality of tick nymphs (moribund or dead nymphs)): 35.4%
- mortality at 1 ppm (nymphs, 1 ppm, 24 h, read-out: average percentage of mortality of tick nymphs (moribund or dead nymphs)): 56.4%
- mortality at 1 ppm (nymphs, 1 ppm, 48 h, read-out: average percentage of mortality of tick nymphs (moribund or dead nymphs)): 97.2%
- mortality at 1 ppm (nymphs, 1 ppm, 72 h, read-out: average percentage of mortality of tick nymphs (moribund or dead nymphs)): 100%
- mortality at 1 ppm (nymphs, 1 ppm, 96 h, read-out: average percentage of mortality of tick nymphs (moribund or dead nymphs)): 100%
- mortality at 10 ppm [9]: 0%
- mortality at 10 ppm [10]: 12.7%
- mortality at 10 ppm [11]: 35.5%
- mortality at 10 ppm [12]: 54.7%
- mortality at 10 ppm [13]: 88.1%
- mortality at 10 ppm [14]: 100%
- mortality at 10 ppm [15]: 100%
- mortality at 10 ppm [16]: 100%
- mortality at 100 ppm [9]: 0%
- mortality at 100 ppm [10]: 9.4%
- mortality at 100 ppm [11]: 45.3%
- mortality at 100 ppm [12]: 69.5%
- mortality at 100 ppm [13]: 95.5%
- mortality at 100 ppm [14]: 100%
- mortality at 100 ppm [15]: 100%
- mortality at 100 ppm [16]: 100%
- ticks affected (convulsion, morbidity or death of ticks) (from 1 hour of exposure, regardless of the concentration tested (1, 10, 100 ppm)): 100%
